Laboratory results taken from ChEMBL document CHEMBL5352392, “Design, synthesis, and biological evaluation of novel dual inhibitors of heat shock protein 90/mammalian target of rapamycin (Hsp90/mTOR) against bladder cancer cells” (Eur J Med Chem, 2022).

Tests used:
[1] = tested on: J82; experiment: Antiproliferative activity against human J82 cells assessed as inhibition of cell proliferation at 1 uM by CCK8 assay relative to control; format: functional
[2] = tested on: T-24; experiment: Antiproliferative activity against human T24 cells assessed as inhibition of cell proliferation at 1 uM by CCK8 assay relative to control; format: functional
[3] = tested on: SW780; experiment: Antiproliferative activity against human SW780 cells assessed as inhibition of cell proliferation at 1 uM by CCK8 assay relative to control; format: functional
[4] = target: Serine/threonine-protein kinase mTOR (Homo sapiens, UniProt P42345); experiment: Inhibition of mTOR (unknown origin) at 100 nM by kinase profiling assay relative to control
[5] = target: Heat shock protein HSP90 (Homo sapiens, UniProt P07900+P08238); settings: dose 100.0 nM
Description: Inhibition of Hsp90 (unknown origin) at 100 nM by TR-FRET assay relative to control

Structure (SMILES)	inhibition at 1 µM [1] [%]	inhibition at 1 µM [2] [%]	inhibition at 1 µM [3] [%]	inhibition [4] [%]	inhibition [5] [%]
CN1CCc2c(sc3nc(-c4ccncc4)nc(N4CCOCC4)c23)C1	37.6	30.5	26.3	44.3	
CC(C)c1cc(C(=O)N2CCc3c(sc4nc(-c5ccc(NC(=O)Nc6ccc(Cl)cc6)cc5)nc(N5CCOCC5)c34)C2)c(O)cc1O	83.9	86	83.2	77.3	66.5
CC(C)c1cc(C(=O)N2CCc3c(sc4nc(N5CCOCC5)nc(N5CCCC5)c34)C2)c(O)cc1O	47.9	57.7	46	40.9	53
CC(C)c1cc(C(=O)N2CCc3c(sc4nc(-c5ccc(NC(=O)Nc6cc(F)cc(F)c6)cc5)nc(N5CCOCC5)c34)C2)c(O)cc1O	78	61.3	53.5	70.5	58.1
Cc1ccc(NC(=O)Nc2ccc(-c3nc(N4CCOCC4)c4c5c(sc4n3)CN(C(=O)c3cc(C(C)C)c(O)cc3O)CC5)cc2)cc1	65.8	67.8	74.5	71.8	61.6
CC(C)c1cc(C(=O)N2CCc3c(sc4nc(N5CCOCC5)nc(N5CCC(F)(F)CC5)c34)C2)c(O)cc1O	49.8	50.3	52.1	45.1	43.6
CCNC(=O)N(C(=O)NCC)c1ccc(-c2nc(N3CCOCC3)c3c4c(sc3n2)CN(C(=O)c2cc(C(C)C)c(O)cc2O)CC4)cc1	53.4	61	63.2	53.5	55.7
CC(C)c1cc(C(=O)N2CCc3c(sc4nc(N5CCOCC5)nc(N5CCOCC5)c34)C2)c(O)cc1O	65	44.8	62.7	68.8	42.4
CC(C)c1cc(C(=O)N2CCc3c(sc4nc(NC5CCOCC5)nc(N5CCOCC5)c34)C2)c(O)cc1O	57.6	49.7	61	57.5	58
CC(C)c1cc(C(=O)N2CCc3c(sc4nc(N5CCOCC5)nc(N5CCCCC5)c34)C2)c(O)cc1O	55.4	57.1	47.6	56.6	54.9
CC(C)c1cc(C(=O)N2CCc3c(sc4nc(-c5ccc(NC(=O)N6CCOCC6)cc5)nc(N5CCOCC5)c34)C2)c(O)cc1O	67.2	44.8	49.8	53.7	58.4
CC(C)c1cc(C(=O)N2CCc3c(sc4nc(-c5ccc(NC(=O)Nc6ccc(C(F)(F)F)cc6)cc5)nc(N5CCOCC5)c34)C2)c(O)cc1O	69	61.3	61.3	66.4	62.8
CC(C)c1cc(C(=O)N2CCc3c(sc4nc(-c5ccc(NC(=O)Nc6ccccc6)cc5)nc(N5CCOCC5)c34)C2)c(O)cc1O	79.7	60.1	66.2	74.5	59.2
CC(C)c1cc(C(=O)N2CCc3c(sc4nc(N5CCCCC5)nc(N5CCOCC5)c34)C2)c(O)cc1O	55	43.5	49.5	55.7	46.6
Cc1ccccc1NC(=O)Nc1ccc(-c2nc(N3CCOCC3)c3c4c(sc3n2)CN(C(=O)c2cc(C(C)C)c(O)cc2O)CC4)cc1	66.2	78	53.7	68.2	62.6
CN1CCc2c(sc3nc(-c4ccc(N)cc4)nc(N4CCOCC4)c23)C1	50.4	32.8	20.7	66.2	
